Where two headings read alike, the source gives them in different places.
Key:
Sau = tested on: Sau; parameters: method as in PMID 35091344; conditions: addition to culture medium; cited from earlier work
Sau strains = test: MK-4 growth rescue assay (OD600); type: cell-based, Staphylococcus aureus; conditions: 24 h
Pseudomonas aeruginosa = test: Growth assay with exogenous DHNA in LB medium (OD600), control bacterium; conditions: DHNA concentrations up to 150 µM, 37°C, 24 h
Protocol: (§4) Sau and Pseudomonas aeruginosa (electronic supplementary material, table S2) were grown for 18 ± 2 h in 5 ml of LB medium at 37°C and 180 r.p.m. Cultures were then diluted in fresh LB medium to contain 2.7 × 10^6 CFU ml^−1. A Nunc Microwell 96-well flat-bottom plate (Thermo Scientific) was seeded in triplicate (from three independent starter cultures) with 75 µl of each of the diluted cultures and 75 µl of 2× working solutions of DHNA, MK-4 or DHNA + MK-4 (prepared from the following stock solutions: 100 mM DHNA dissolved in dimethyl sulfoxide (DMSO), and 50 mM MK-4 (Sigma-Aldrich) dissolved in 100% ethanol). Plate wells contained a final concentration of 10^6 CFU well^−1 with 0, 50 or 100 µM DHNA for growth assays, or with 0 or 100 µM DHNA supplemented with 337 µM MK-4 for growth rescue assays. Plates were incubated at 37°C and 300 r.p.m. for 24 h. Growth was determined by measuring the OD600 of the cultures every 30 min during the incubation period. Data from biological replicates were averaged and subtracted from blank data (sterile medium with appropriate additives).

[1] = tested on: four different Sau strains; test: Growth assay with exogenous DHNA in LB medium (OD600); conditions: 37°C, 24 h
Protocol: as §4

Mtb-MenD = tested on: Mtb-MenD; parameters: method as in PMID 32029475; conditions: 0.6 µM Mtb-MenD; read-out: IC50 of DHNA, SEPHCHC activity; cited from earlier work
[2] = target: Sau-MenDIS1 Arg98Ala mutant (Staphylococcus aureus, UniProt Q2FZL7, R98A); test: UV spectroscopy assay of isochorismate consumption, DHNA inhibition
WT Sau-MenDIS1 = WT Sau-MenDIS1 (Staphylococcus aureus, UniProt Q2FZL7); test: UV spectroscopy assay of isochorismate consumption (SEPHCHC synthase activity), DHNA inhibition; type: biochemical
Sau-MenDATCC 25923 [3] = target: T1, Sau-MenDATCC 25923 (Staphylococcus aureus, UniProt Q5HH40); test: UV spectroscopy assay of isochorismate consumption, DHNA inhibition; type: biochemical
[4] = target: Sau-MenDIS1 Lys283Ala mutant (Staphylococcus aureus, UniProt Q5HH40, K283A); test: as above
[5] = tested on: Sau-MenDIS1 Lys283Ala mutant (Staphylococcus aureus, K283A); test: as above; conditions: four-parameter Hill fit; complete CI not determinable, best-fit value to be interpreted with caution
[6] = target: Sau-MenDIS1 Lys309Ala mutant (Staphylococcus aureus, UniProt Q2FZL7, K309A); test: as above
Sau-MenDIS1 = Sau-MenDIS1 (Staphylococcus aureus, UniProt Q2FZL7); test: Intrinsic fluorescence quenching upon DHNA titration; type: binding
Protocol: (§1) Intrinsic fluorescence quenching experiments were performed at 25°C with a Varian Cary Eclipse Fluorescence Spectrophotometer (Agilent Technologies) with slits set at 5 nm bandwidth. The excitation wavelength was 290 nm and emission spectra were recorded in the 300–400 nm range. […] For Sau-MenD samples in the presence of the reaction ligands, the enzyme was preincubated with 100 µM ThDP only or 100 µM ThDP and 300 µM oxoglutarate for 45 min at ambient temperature. DHNA (Sigma-Aldrich) was titrated from stock solutions that were prepared in the assay buffer and kept on ice. Following DHNA addition, cuvette contents were mixed immediately and fluorescence intensity was measured.
(§2) The fluorescence intensities obtained at 340 nm were corrected for the dilution factor as well as for inner filter effects using equation (2.1),2.1 Fi corr=Fi dil ×10^Aex+Aem/2, where Fi corr is the corrected value of fluorescence intensity at the titration point, Fi dil is the dilution-corrected fluorescence intensity measured, and Aex and Aem are the absorbance of DHNA at excitation (290 nm) and emission wavelengths (340 nm).
(§3) Corrected intensities were plotted against the DHNA concentration and, to determine the Kd value for DHNA, the resulting data were fitted in GraphPad Prism 9 using equation (2.2),2.2 F=Fmax−(X+Kd+M−(X+Kd+M)^2−4XM)/2M(Fmax−Fmin), where F is the measured fluorescence intensity of Sau-MenD, Fmax is the fluorescence intensity of Sau-MenD in the absence of DHNA, Fmin is the fluorescence intensity when Sau-MenD is saturated with DHNA, M is the micromolar concentration of enzyme used in the assay, X is the micromolar DHNA concentration and Kd is the dissociation constant.

Sau-MenDATCC 25923 [7] = target: T1, Sau-MenDATCC 25923; test: as above; type: binding; conditions: 1 µM enzyme
Protocol: as §1, §2, §3

[8] = target: the molecule itself; test: native MS; protein exchanged from SEC buffer into 2 M ammonium acetate pH 7.4; Sau-MenDIS1 4.7 mg/ml, Sau-MenD ATCC 25923 6.3 mg/ml; gold-coated glass capillaries, Synapt XS, soft ionization
[9] = read-out: activity reduction in the presence of 12.5 µM DHNA
[10] = four-parameter logistic Hill fit of DHNA inhibition

CC(C)=CCC/C(C)=C/CC/C(C)=C/CC/C(C)=C/CC1=C(C)C(=O)c2ccccc2C1=O [MK-4]
effect on susceptibility of Sau to cannabidiol (Sau): prevented cannabidiol-mediated growth impairment
effect on growth, MK-4 alone (Sau strains; 337 µM MK-4 (150 µg ml−1), absence of DHNA): slightly impacted the growth
growth rescue of DHNA-treated Sau (Sau strains; 337 µM MK-4 added to medium containing 100 µM DHNA, compared with 100 µM DHNA only): significant growth improvement

O=C(O)c1cc(O)c2ccccc2c1O [DHNA, 1,4-dihydroxy-2-naphthoic acid]
effect on growth (Pseudomonas aeruginosa): unaffected
effect on growth ([1]; 50 µM DHNA, all four Sau strains): clearly impaired the growth
effect on growth ([1]; 100 µM DHNA): growth impact was more severe
effect on growth ([1]; 150 µM DHNA, all four Sau): completely inhibited
IC50 (Mtb-MenD): 53 nM
IC50 [2]: > 10 µM
Hill slope ([2]; four-parameter Hill fit, complete CI not determinable, best-fit value to be interpreted with caution): −2.3
inhibition at 12.5 µM [2, 9]: 21%
effect on susceptibility of Sau to cannabidiol (Sau): increased the susceptibility
IC50 (WT Sau-MenDIS1; 0.4 µM enzyme, 100 µM ThDP, 300 µM oxoglutarate, 10 µM isochorismate, 30 min preincubation 37°C): 3.7 µM
inhibition at 12.5 µM (WT Sau-MenDIS1; 12.5 µM DHNA, 0.4 µM enzyme, 100 µM ThDP, 300 µM oxoglutarate, 10 µM isochorismate, read-out: activity reduction in the presence of 12.5 µM DHNA): 82%
Hill slope (WT Sau-MenDIS1; [10]): −1.0
activity reduction in the presence of 12.5 µM DHNA (Sau-MenDATCC 25923 [3]; 12.5 µM DHNA, 0.4 µM enzyme, 100 µM ThDP, 300 µM oxoglutarate, 10 µM isochorismate): 87%
Hill slope (Sau-MenDATCC 25923 [3]; [10]): −0.99
IC50 (Sau-MenDATCC 25923 [3]; read-out: IC50 of DHNA, 0.4 µM enzyme, 100 µM ThDP, 300 µM oxoglutarate, 10 µM isochorismate): 2300 nM
IC50 [4]: > 10 µM
Hill slope [5]: −1.2
IC50 [6]: 4.6 µM
Hill slope [6, 10]: −1.0
inhibition at 12.5 µM [6, 9]: 80%
Kd (Sau-MenDIS1; + 100 μM ThDP, 1 µM enzyme, read-out: Kd for DHNA): 98 µM
Kd (Sau-MenDIS1; + 100 μM ThDP/300 μM oxoglutarate, 1 µM enzyme, read-out: Kd for DHNA): 58 µM
Kd (Sau-MenDIS1; apo-enzyme, 1 µM enzyme, 25°C, read-out: Kd for DHNA): 110 µM
Kd (Sau-MenDIS1; apo-enzyme, ThDP-bound and ThDP- and oxoglutarate-bound forms, read-out: Kd values for DHNA (span over enzyme forms)): 58 to 110 µM
Kd (Sau-MenDATCC 25923 [7]; + 100 μM ThDP/300 μM oxoglutarate): 67 µM
Kd (Sau-MenDATCC 25923 [7]; apo-enzyme, 25°C): 85 µM

B1: Staphylococcus aureus IS1 MenD (SEPHCHC synthase), wild type (enzyme, UniProt Q2FZL7 1-557, looked up)
chain: MGNHKAALTKQVFTFASELYAYGVREVVISPGSRSTPLALAFEAHPNIKTWIHPDERSAAFFAVGLIKGSERPVAILCTSGTAAANYTPAIAESQISRIPLIVLTSDRPHELRSVGAPQAINQVNMFNNYVSYEFDMPIADDSKETIDAIYYQMQIASQYLYGPHKGPIHFNLPFRDPLTPDLNATELLTSEMKILPHYQKSIDASALRHILNKKKGLIIVGDMQHQEVDQILTYSTIYDLPILADPLSHLRKFDHPNVICTYDLLFRSGLDLNVDFVIRVGKPVISKKLNQWLKKTDAFQILVQNNDKIDVFPIAPDISYEISANDFFRSLMEDTTVNRVSWLEKWQCLEKKGRKEIKCYLEQATDESAFVGELIKKTSEKDALFISNSMPIRDVDNLLLNKNIDVYANRGANGIDGIVSTALGMAVHKRITLLIGDLSFYHDMNGLLMSKLNNIQMNIVLLNNDGGGIFSYLPQKESATDYFERLFGTPTGLDFEYTAKLYQFDFKRFNSVSEFKNATLLSETSTIYELITNREDNFKQHQILYQKLSEMIHDTL
notes: MenD (SEPHCHC synthase) of Staphylococcus aureus IS1; the structure numbers residues up to 557; Cloned in a modified pET30a by NcoI and HindIII; also called Sau-MenDIS1; Sau-MenD IS1; source: E. coli BL21 (DE3), purified (IMAC, TEV cleavage, subtractive IMAC, SEC); not shown: His6, N-terminal, cleaved
stoichiometry N [8]: 4

B2: Staphylococcus aureus ATCC 25923 MenD (SEPHCHC synthase) (enzyme)
chain: MGNHKAALTKQVFTFASELYAYGVREVVISPGSRSTPLALAFEAHPNIKTWIHPDERSAAFFAVGLIKGSERPVAILCTSGTAAANYTPAIAESQISRIPLIVLTSDRPHELRSVGAPQAINQVNMFNNYVSYEFDMPIADDSKETIDAIYYQMQIASQYLYGPHKGPIHFNLPFRDPLTPDLNATELLTSEMKILPHYQKSIDASALRHILNKKKGLIIVGDMQHQEVDQILTYSTIYDLPILADPLSHLRKFDHPNVICTYDLLFRSGLDLKVDFVIRVGKPVISKKLNQWLKKTDAFQILVQNNDKIDVFPIAPDISYEISANDFFRSLMEDTTVNRVSWLEKWQRIEKKGRKEIKCYLEQATDESAFVGELIKKTSEKDALFISNSMPIRDVDNLLLNKNIDVYANRGANGIDGIVSTALGMAVHKRVTLLIGDLSFYHDMNGLLMSKLNNIQMNIVLLNNDGGGIFSYLPQKESATDYFERLFGTPTGLDFEYTAKLYQFDFKRFNNVSEFKNATLLSETSTIYELITNREDNFKQHQILYQKLSEMIHDTL
stoichiometry N [8]: 4

Source: publication PMC9835592, “Allosteric inhibition of Staphylococcus aureus MenD by 1,4-dihydroxy naphthoic acid: a feedback inhibition mechanism of the menaquinone biosynthesis pathway” (Philosophical Transactions of the Royal Society B: …, 2023)
